# Assay results reported in ChEMBL document CHEMBL1201862, “PubChem BioAssay data set” (2004).
#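 48-hour exposure; five concentrations; linearly interpolated endpoints. At the GI50, growth is halved.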 Calls of active or inactive are those of the source. Rule as the data show it: active = GI50 up to about 1.1 µM and inactive = higher.
# Tests used:
# Experiment in all cases: DTP human tumour cell line panel, 48 h
# [1] = test system: SK-MEL-5
# [2] = test system: CCRF-CEM
# [3] = test system: SF-295
# [4] = test system: SNB-78
# [5] = test system: HOP-18
# [6] = test system: M14
# [7] = test system: LXFL 529
# [8] = test system: A498
# [9] = test system: UACC-62
# [10] = test system: HL-60
# [11] = test system: HCT-15
# [12] = test system: TK-10
# [13] = test system: SF-268
# [14] = test system: EKVX
# [15] = test system: OVCAR-5
# [16] = test system: OVCAR-8
# [17] = test system: HT-29
# [18] = test system: SNB-19
# [19] = test system: SK-MEL-28
# [20] = test system: KM-20L2
# [21] = test system: XF498
# [22] = test system: SW-620
# [23] = test system: U-251
# [24] = test system: M19-MEL
# [25] = test system: HOP-92
# [26] = test system: UO-31
# [27] = test system: MOLT-4
# [28] = test system: SR
# [29] = test system: NCI-H460
# [30] = test system: HCT-116
# [31] = test system: IGROV-1
# [32] = test system: RXF 631
# [33] = test system: A549
# [34] = test system: SK-OV-3
# [35] = test system: SN12C
# [36] = test system: NCI-H23
# [37] = test system: SNB-75
# [38] = test system: SF-539
# [39] = test system: Malme-3M
# [40] = test system: HCC 2998
# [41] = test system: OVCAR-3
# [42] = test system: KM12
# [43] = test system: LOX IMVI
# [44] = test system: RPMI-8226
# [45] = test system: DLD-1
# [46] = test system: DMS-114
# [47] = test system: NCI-H522
# [48] = test system: K562
# [49] = test system: ACHN
# [50] = test system: RXF 393
# [51] = test system: SK-MEL-2
# [52] = test system: 786-0
# [53] = test system: DMS-273
# [54] = test system: COLO 205
# [55] = test system: UACC-257
# [56] = test system: HOP-62
# [57] = test system: CAKI-1
# [58] = test system: NCI-H226
# [59] = test system: OVCAR-4
smiles,measurement,setting,value
C/C=C(\CCOS(=O)(=O)c1ccc(C)cc1)[Si](C)(C)C,GI50,[1],> 100 µM (inactive)
same,GI50,[2],0.115 µM (active)
same,GI50,[3],> 100 µM (inactive)
same,GI50,[4],> 100 µM (inactive)
same,GI50,[5],> 100 µM (inactive)
same,GI50,[6],> 100 µM (inactive)
same,GI50,[7],> 100 µM (inactive)
same,GI50,[8],> 100 µM (inactive)
same,GI50,[9],> 100 µM (inactive)
same,GI50,[10],> 100 µM (inactive)
same,GI50,[11],> 100 µM
same,GI50,[12],> 100 µM (inactive)
same,GI50,[13],> 100 µM (inactive)
same,GI50,[14],> 100 µM (inactive)
same,GI50,[15],> 100 µM (inactive)
same,GI50,[16],> 100 µM (inactive)
same,GI50,[17],> 100 µM (inactive)
same,GI50,[18],> 100 µM (inactive)
same,GI50,[19],> 100 µM (inactive)
same,GI50,[20],> 100 µM (inactive)
same,GI50,[21],> 100 µM (inactive)
same,GI50,[22],> 100 µM (inactive)
same,GI50,[23],> 100 µM (inactive)
same,GI50,[24],> 100 µM (inactive)
same,GI50,[25],> 100 µM (inactive)
same,GI50,[26],> 100 µM (inactive)
same,GI50,[27],> 100 µM (inactive)
same,GI50,[28],> 100 µM (inactive)
same,GI50,[29],> 100 µM (inactive)
same,GI50,[30],> 100 µM (inactive)
same,GI50,[31],> 100 µM (inactive)
same,GI50,[32],> 100 µM (inactive)
same,GI50,[33],> 100 µM (inactive)
same,GI50,[34],> 100 µM (inactive)
same,GI50,[35],> 100 µM (inactive)
same,GI50,[36],> 100 µM (inactive)
same,GI50,[37],> 100 µM (inactive)
same,GI50,[38],> 100 µM (inactive)
same,GI50,[39],> 100 µM (inactive)
same,GI50,[40],> 100 µM (inactive)
same,GI50,[41],> 100 µM (inactive)
same,GI50,[42],> 100 µM (inactive)
same,GI50,[43],> 100 µM (inactive)
same,GI50,[44],> 100 µM (inactive)
same,GI50,[45],> 100 µM (inactive)
same,GI50,[46],> 100 µM (inactive)
same,GI50,[47],> 100 µM (inactive)
same,GI50,[48],> 100 µM (inactive)
same,GI50,[49],> 100 µM (inactive)
same,GI50,[50],> 100 µM (inactive)
same,GI50,[51],> 100 µM (inactive)
same,GI50,[52],> 100 µM (inactive)
same,GI50,[53],> 100 µM (inactive)
same,GI50,[54],> 100 µM (inactive)
same,GI50,[55],> 100 µM (inactive)
CCOC(=O)C(=Cc1cccnc1C)C(=O)OCC,GI50,[1],11.8 µM (inactive)
same,GI50,[2],3.93 µM (inactive)
same,GI50,[3],10.6 µM (inactive)
same,GI50,[5],9.68 µM (inactive)
same,GI50,[6],11.2 µM (inactive)
same,GI50,[7],7.57 µM (inactive)
same,GI50,[8],10.9 µM (inactive)
same,GI50,[9],6.82 µM (inactive)
same,GI50,[10],3.78 µM (inactive)
same,GI50,[11],3.69 µM
same,GI50,[12],12.9 µM (inactive)
same,GI50,[13],9.89 µM (inactive)
same,GI50,[14],16.4 µM (inactive)
same,GI50,[56],18.8 µM (inactive)
same,GI50,[15],17.9 µM (inactive)
same,GI50,[16],5.18 µM (inactive)
same,GI50,[17],5.15 µM (inactive)
same,GI50,[18],11.3 µM (inactive)
same,GI50,[19],17.5 µM (inactive)
same,GI50,[20],3.6 µM (inactive)
same,GI50,[21],12.6 µM (inactive)
same,GI50,[22],5.32 µM (inactive)
same,GI50,[57],6.21 µM (inactive)
same,GI50,[23],6.18 µM (inactive)
same,GI50,[24],7.91 µM (inactive)
same,GI50,[25],7.01 µM (inactive)
same,GI50,[26],5.16 µM (inactive)
same,GI50,[27],12.6 µM (inactive)
same,GI50,[28],3.61 µM (inactive)
same,GI50,[29],15.6 µM (inactive)
same,GI50,[30],5.01 µM (inactive)
same,GI50,[31],7.6 µM (inactive)
same,GI50,[32],11.9 µM (inactive)
same,GI50,[33],15.6 µM (inactive)
same,GI50,[34],11.3 µM (inactive)
same,GI50,[35],4.43 µM (inactive)
same,GI50,[36],4.09 µM (inactive)
same,GI50,[37],3.13 µM (inactive)
same,GI50,[38],6.15 µM (inactive)
same,GI50,[39],12.2 µM (inactive)
same,GI50,[41],2.67 µM (inactive)
same,GI50,[42],3.1 µM (inactive)
same,GI50,[43],3.71 µM (inactive)
same,GI50,[58],31.8 µM (inactive)
same,GI50,[45],9.27 µM (inactive)
same,GI50,[46],13.7 µM (inactive)
same,GI50,[47],3.89 µM (inactive)
same,GI50,[48],3.39 µM (inactive)
same,GI50,[49],11.9 µM (inactive)
same,GI50,[50],4.35 µM (inactive)
same,GI50,[51],4.08 µM (inactive)
same,GI50,[52],8.51 µM (inactive)
same,GI50,[53],3.82 µM (inactive)
same,GI50,[59],11 µM (inactive)
same,GI50,[54],5.6 µM (inactive)
same,GI50,[55],8.09 µM (inactive)
